According to the NIST ThermoML archive (doi:10.1016/j.tca.2005.08.034):

Experiments:
[1] = 298.15 K; for surface tension liquid-gas: Drop volume; for speed of sound / mass density: 101.33 kPa, Liquid; for mass density: Vibrating tube method
[2] = refractive index (Na D-line) (dimensionless); settings: 298.15 K; 101.33 kPa; Liquid; refractometer
[3] = xn = mol fraction of the nth substance listed; settings: 298.15 K; for surface tension liquid-gas: Drop volume; for mass density / speed of sound: 101.3 kPa, Liquid; for mass density: Vibrating tube method
[4] = refractive index (Na D-line) (dimensionless); φn = volume fraction of the nth substance listed; settings: 298.15 K, 101.3 kPa, Liquid, refractometer
[5] = excess molar enthalpy (molar enthalpy of mixing); xn = mol fraction of the nth substance listed; settings: 298.15 K, 101.3 kPa, Liquid, Flow calorimetry

CC1CCCO1 (stereo unspecified) [2-methyltetrahydrofuran]
Settings	mass density [kg/m3]	refractive index	speed of sound [m/s]	surface tension liquid-gas [mN/m]
[1]	849.2	–	1202.8	24.68
[2]	–	1.40287	–	–

Clc1ccccc1 [chlorobenzene]
Settings	mass density [kg/m3]	refractive index	speed of sound [m/s]	surface tension liquid-gas [mN/m]
[1]	1100.94	–	1267.9	33
[2]	–	1.52176	–	–

CC1CCCO1 (stereo unspecified) [2-methyltetrahydrofuran] + Clc1ccccc1
Settings	excess molar enthalpy [kcal/mol]	mass density [kg/m3]	refractive index	speed of sound [m/s]	surface tension liquid-gas [mN/m]
[3], x1 = 0.0378	–	1092.14	–	1266.6	–
[3], x1 = 0.0483	–	–	–	–	32.6
[3], x1 = 0.0969	–	–	–	–	32.19
[3], x1 = 0.0995	–	1077.75	–	1264.3	–
[3], x1 = 0.1875	–	1056.86	–	1261.1	–
[3], x1 = 0.1993	–	–	–	–	31.31
[3], x1 = 0.2987	–	1030.2	–	1256.5	–
[3], x1 = 0.2999	–	–	–	–	30.45
[3], x1 = 0.3922	–	1007.36	–	1251.9	–
[3], x1 = 0.3988	–	–	–	–	29.61
[3], x1 = 0.4947	–	981.73	–	1246.3	–
[3], x1 = 0.503	–	–	–	–	28.74
[3], x1 = 0.5973	–	955.71	–	1239.9	–
[3], x1 = 0.6008	–	–	–	–	27.92
[3], x1 = 0.6435	–	943.88	–	1236.6	–
[3], x1 = 0.7024	–	–	–	–	27.09
[3], x1 = 0.8003	–	902.98	–	1223.5	–
[3], x1 = 0.8028	–	–	–	–	26.27
[3], x1 = 0.9051	–	–	–	–	25.44
[3], x1 = 0.9074	–	874.39	–	1212.9	–
[3], x1 = 0.9393	–	865.76	–	1209.6	–
[3], x1 = 0.9496	–	–	–	–	25.08
[4], φ1 = 0.0479	–	–	1.5165	–	–
[4], φ1 = 0.0961	–	–	1.5112	–	–
[4], φ1 = 0.1979	–	–	1.49985	–	–
[4], φ1 = 0.2981	–	–	1.48853	–	–
[4], φ1 = 0.3966	–	–	1.47724	–	–
[4], φ1 = 0.5008	–	–	1.46501	–	–
[4], φ1 = 0.5987	–	–	1.45323	–	–
[4], φ1 = 0.7006	–	–	1.44079	–	–
[4], φ1 = 0.8014	–	–	1.4283	–	–
[4], φ1 = 0.9043	–	–	1.41518	–	–
[4], φ1 = 0.9492	–	–	1.40941	–	–
[5], x1 = 0.058	-0.0203	–	–	–	–
[5], x1 = 0.105	-0.0402	–	–	–	–
[5], x1 = 0.198	-0.0793	–	–	–	–
[5], x1 = 0.294	-0.114	–	–	–	–
[5], x1 = 0.391	-0.137	–	–	–	–
[5], x1 = 0.488	-0.15	–	–	–	–
[5], x1 = 0.585	-0.149	–	–	–	–
[5], x1 = 0.683	-0.137	–	–	–	–
[5], x1 = 0.784	-0.107	–	–	–	–
[5], x1 = 0.883	-0.0626	–	–	–	–
[5], x1 = 0.932	-0.0394	–	–	–	–

c1ccccc1 [benzene]
Settings	mass density [kg/m3]	refractive index	speed of sound [m/s]	surface tension liquid-gas [mN/m]
[1]	873.39	–	1299.2	28.57
[2]	–	1.49774	–	–

Fc1ccccc1 [fluorobenzene]
Settings	mass density [kg/m3]	refractive index	speed of sound [m/s]	surface tension liquid-gas [mN/m]
[1]	1018.79	–	1166	27.43
[2]	–	1.4629	–	–
